The assay concerns the target Tyrosine-protein kinase BTK (Homo sapiens, UniProt Q06187). Briefly: Recombinant Human BTK Inhibition Assay: The inhibition assays were performed using the generic tyrosine kinase assay kit from C is Bio (HTRF KinEASE-TK #62TK0PEB). The assay is based on the principle of fluorescence resonance energy transfer (FRET) between the Europium Cryptate labeled anti-phosphotyrosine antibody and streptavidin labeled fluorophore, XL-665. In an uninhibited kinase reaction the biotinylated peptide substrate (Tk-Biotin) gets phosphorylated at an intermediate tyrosine site which is captured by anti-phosphotyrosine antibody which eventually acts as a FRET donor. The streptavidin labeled XL-665 binds strongly to the Tk-Biotin substrate and act as a FRET acceptor. The resultant FRET signal is measured at 665 nm. A ratio of this specific fluorescence (665 nm) to the background fluorescence (620 nm), conferred by the free antibody, is directly proportional to the kinase activity. Inhibition of the kinase activity by a pharmacological intervention such as a Btk inhibitor of the present disclosure will result into decreased FRET signal.

Broadly, the IC50 is the concentration needed to halve the response being measured.

Tyrosine-protein kinase BTK, sequence (Q06187 whole entry): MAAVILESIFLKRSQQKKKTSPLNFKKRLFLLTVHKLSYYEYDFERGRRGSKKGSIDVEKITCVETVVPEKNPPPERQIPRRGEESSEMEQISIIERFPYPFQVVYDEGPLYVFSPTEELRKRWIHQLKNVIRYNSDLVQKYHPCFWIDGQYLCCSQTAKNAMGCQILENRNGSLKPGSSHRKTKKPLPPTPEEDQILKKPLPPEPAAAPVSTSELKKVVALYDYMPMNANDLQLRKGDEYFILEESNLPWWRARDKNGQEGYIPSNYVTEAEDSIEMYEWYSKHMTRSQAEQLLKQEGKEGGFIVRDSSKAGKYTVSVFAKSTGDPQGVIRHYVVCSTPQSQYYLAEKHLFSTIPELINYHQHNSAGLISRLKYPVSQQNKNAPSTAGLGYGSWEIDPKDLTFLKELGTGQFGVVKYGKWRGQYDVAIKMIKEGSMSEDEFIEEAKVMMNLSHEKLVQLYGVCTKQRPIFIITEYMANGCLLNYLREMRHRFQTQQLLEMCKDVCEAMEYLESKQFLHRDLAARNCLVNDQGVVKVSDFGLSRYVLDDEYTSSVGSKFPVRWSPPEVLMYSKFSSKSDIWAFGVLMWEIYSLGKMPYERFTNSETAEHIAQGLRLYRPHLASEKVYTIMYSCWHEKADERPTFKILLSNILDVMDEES

`CCN1CC(n2cc(-c3cc4c(-c5cccc(N6CCOc7cc(C8CC8)ccc7C6=O)c5CO)ccnc4[nH]3)cn2)C1`: the IC50 is 7 nM.

The values above are taken from ChEMBL document CHEMBL3886475, “Substituted hetero-bicyclic compounds, compositions and medicinal applications thereof” (2016).
